Source: PubChem BioAssay AID1508591

Conditions: rat; liver microsomes; pH 7.4; 15.0 min; 1.0 µM

SMILES	half-life [min]
Cc1cc(C)nc(NC(=S)N2CCN(Cc3ccc(C(F)(F)F)cc3)CC2)c1	> 30
CCN1C(=O)c2ccccc2[S@](=O)c2ccc(C(=O)N[C@H](C)c3ccc4ccccc4c3)cc21	5.2
Cc1ccc(-n2c(C)cc(-c3nnc4n3CCCCC4)c2C)cc1	1.62
Cc1cn(-c2cc(NC(=O)c3ccc(C)c(Nc4nccc(-c5cccnc5)n4)c3)cc(C(F)(F)F)c2)cn1	> 30
COc1ccc(-c2csc(NC(=O)c3ccccc3NS(=O)(=O)c3ccc(C)cc3)n2)cc1	2.34
NCC(=O)Nc1cncc(-c2nn3c(=O)cc(N4CCNCC4)nc3s2)c1	> 30
NC1CCC(Nc2nc(Nc3ccc(C(=O)N4CCCCC4)cc3)c3ncn(-c4cccc(F)c4)c3n2)CC1 (centres undefined)	23
Cc1ccc(S(=O)(=O)Nc2cc(C(=O)Nc3nc(-c4ccccc4)cs3)ccc2Cl)cc1	15
CCCSc1nc(N[C@@H]2C[C@H]2c2ccc(F)c(F)c2)c2nnn([C@@H]3C[C@H](OCCO)[C@@H](O)[C@H]3O)c2n1	> 30
O=[S+]([O-])(Nc1nccs1)c1ccc(NCc2cc(F)cc(Cl)c2O)cc1	> 30
CCN(CC)C(=O)c1sc2c(c1C)c(=O)n(Cc1ccccc1)c(=O)n2CC(=O)Nc1ccc(OC)cc1	5.16
Clc1ccc(Nc2nc(-c3ccncc3)nc3ccccc23)cc1Cl	15
COc1cc([C@@H]2c3cc4c(cc3[C@H](O)[C@H]3COC(=O)[C@H]23)OCO4)cc(OC)c1OC	> 30
COc1ccc(-c2nc(NC(C)c3ccccc3)c3ccccc3n2)cc1 (centres undefined)	20.3
CNc1oc(-c2cccc(-c3ccccc3)c2)nc1C#N	12
Cc1sc2c(c1C)C(c1ccc(Cl)cc1)=N[C@H](CC(=O)NCCCCNC(=O)COc1cccc3c1C(=O)N([C@H]1CCC(=O)NC1=O)C3=O)c1nnc(C)n1-2	4.93
NC(=O)C1CCN(c2ncc(-c3cccc(F)c3)s2)CC1	9.48
COc1cc(N2CCC(N3CCN(C)CC3)CC2)ccc1Nc1ncc(Cl)c(Nc2ccccc2P(C)(C)=O)n1	> 30
O=C(Nc1ccc(Cl)cc1Cl)c1cnc2ccccc2n1	3
c1ccc(Nc2nc(NCc3ccco3)c3ccccc3n2)cc1	2.09
COc1cccc(-c2nc(-c3cc4cc(OC)ccc4[nH]c3=O)no2)c1	24
COc1ccccc1C(=O)Nc1ccccc1C(=O)Nc1cccc(C(F)(F)F)c1	> 30
O=C1Nc2ccccc2/C1=C/c1ccc[nH]1	5.1
COc1ccc(-c2ccc3ncc4c(c3c2)n(-c2ccc(N3CCNCC3)c(C(F)(F)F)c2)c(=O)n4C)cn1	> 30
CCCCC1CCC(C(=O)Nc2ccc(S(=O)(=O)Nc3nccs3)cc2)CC1 (centres undefined)	> 30

SMILES	half-life [min]
NC(=O)C1CCN(c2nc(-c3cccc(N)c3)cs2)CC1	> 30
Fc1cc(Nc2nc(-c3ccncc3)nc3ccccc23)ccc1-c1cc(F)c(F)c(F)c1	> 30
COc1cc(-c2cn(C)c(=O)c3cnccc23)c(OC)cc1CN(C)C	> 30
Cc1nn(CC(=O)NCCCN2CCC(N3CCCCC3)CC2)c(=O)c2cc(-c3ccccc3)nn12	13
O=S(=O)(Nc1cccc2ccccc12)c1ccc(NCc2ccc(Br)cc2O)cc1	7.4
Clc1ccc2ncc(-c3cccc(NC4CCNC4)n3)n2c1 (centres undefined)	21.8
O=S(=O)(Nc1nccs1)c1ccc(NCc2cccc(F)c2O)cc1	16
O=C(O)Cc1ccc2oc(-c3ccc(NC(=O)/C=C/c4ccc(Br)cc4)c(F)c3)nc2c1	> 30
COC(=O)C1=C(C)NC(=O)CC1C(=O)Nc1ccc(Cl)cc1 (centres undefined)	21
Cc1cc(C)c(C(=O)Nc2cccc([S+](=O)([O-])Nc3ccc(Br)cc3)c2)[nH]1	7.7
Cc1ccnc(NC(=S)N2CCN(c3cc(Cl)cc(Cl)c3)CC2)c1	> 30
Fc1cc(Nc2nc(-c3ccncc3)nc3ccccc23)ccc1-c1cccc(OC(F)F)c1	> 30
CC(=O)NC1CCN(c2nc(-c3ccc(Br)cc3)cs2)CC1	> 30
CSc1ccccc1N1CCN(CCCCCC(=O)NC2CCCc3ccccc32)CC1 (centres undefined)	2.21
Cc1ccc(S(=O)(=O)Nc2ccccc2C(=O)Nc2ccc(-c3ccccc3)nc2)cc1	2.7
Cc1nc(-c2ccco2)cc([C@H]2CN3CC[C@H]2C[C@@H]3CNC(=O)NC2CCCCC2)n1	29.6
CC(=O)N[C@H]1CN(C2CCN(c3ccc(F)cc3C)CC2)C[C@@H]1C1CC1	2.3
COc1ccc(NS(=O)(=O)c2ccc(C)cc2)c(C(=O)Nc2nc(-c3ccccc3)cs2)c1	4.5
Cc1noc(C)c1S(=O)(=O)Nc1cnccc1C(=O)Nc1nc(-c2ccccc2)cs1	> 30
COc1ccc(-c2nc(Nc3ccc(F)c(F)c3)c3ccccc3n2)cc1	> 30
COc1ccc(-c2nc3ccccc3c(=O)n2Cc2ccco2)cc1COc1ccc(NC(C)=O)cc1	2.17
CC(C)(C)n1cnc2cc(C(=O)N3CCCCC3)ccc21	9.7
COc1ccc(Cl)cc1C(=O)Nc1nc(-c2ccccc2)cs1	24
O=C1CCc2ccc(OCCCCN3CCN(c4cccc(Cl)c4Cl)CC3)cc2N1	2.56
